Measurements as given in US11572369B2, “Bicyclic pyridine compositions and methods of using the same for cancer therapy” (UNIVERSITY OF SOUTH CAROLINA, priority 2019, dated 2023).

Experiments:
Test in all cases: KINOMEscan
Assay type in all cases: binding
Conditions in all cases: 2000 nM
WNK3 = biological target: T1, WNK3 (Homo sapiens, UniProt Q9BYP7)
T1 construct: purchased KINOMEscan (DiscoveRx) panel service

ALK(L1196M) = biological target: T2, ALK(L1196M) (Homo sapiens, UniProt Q9UM73, L1196M)
T2 construct: DNA label (qPCR read-out); purchased KINOMEscan scanMAX panel (DiscoveRx)

ACVR1 = biological target: T3, ACVR1 (Homo sapiens, UniProt Q04771)
T3 construct: purchased DiscoveRx (KINOMEscan scanMAX panel, service)

CAMK4 = biological target: T4, CAMK4 (Homo sapiens, UniProt Q16566)
T4 construct: DNA label (qPCR read-out); purchased KINOMEscan (ScanMAX panel service)
T4 sequence (Q16566 whole entry): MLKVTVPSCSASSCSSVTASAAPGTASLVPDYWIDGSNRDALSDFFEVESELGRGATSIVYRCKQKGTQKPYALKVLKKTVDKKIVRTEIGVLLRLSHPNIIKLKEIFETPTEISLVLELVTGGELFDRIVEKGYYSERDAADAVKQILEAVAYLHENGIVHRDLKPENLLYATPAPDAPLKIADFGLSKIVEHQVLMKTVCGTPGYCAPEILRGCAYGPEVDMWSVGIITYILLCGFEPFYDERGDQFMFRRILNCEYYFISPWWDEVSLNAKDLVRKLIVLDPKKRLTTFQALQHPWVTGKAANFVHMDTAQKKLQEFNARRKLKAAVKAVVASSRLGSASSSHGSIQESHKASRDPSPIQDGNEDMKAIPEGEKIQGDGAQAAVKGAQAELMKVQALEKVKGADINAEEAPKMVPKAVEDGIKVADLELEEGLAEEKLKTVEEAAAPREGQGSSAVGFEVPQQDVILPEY

ACVR2A = biological target: T5, ACVR2A (Homo sapiens, UniProt P27037)
T5 construct: purchased DiscoveRx (KINOMEscan scanMAX panel, service)

NDR2 = biological target: T6, NDR2 (Homo sapiens, UniProt Q9Y2H1)
T6 construct: DNA label (for qPCR read-out); purchased KINOMEscan scanMAX panel (DiscoveRx)

LYN = LYN (Homo sapiens, UniProt P07948)
LATS2 = biological target: T7, LATS2 (Homo sapiens, UniProt Q9NRM7)
T7 construct: purchased KINOMEscan (DiscoveRx) panel service

FLT3(D835V) = biological target: T8, FLT3(D835V) (Homo sapiens, UniProt P36888, D835V)
T8 construct: purchased DiscoveRx (KINOMEscan scanMAX panel)

PLK1 = biological target: T9, PLK1 (Homo sapiens, UniProt P53350)
T9 construct: purchased DiscoveRx (KINOMEscan scanMAX panel)

TYRO3 = biological target: T10, TYRO3 (Homo sapiens, UniProt Q06418)
T10 construct: DNA label (for qPCR read-out); purchased DiscoveRx (KINOMEscan scanMAX panel)

[1] = biological target: T11, EGFR(L747-S752del, P753S) (Homo sapiens, UniProt P00533, DEL747-752/P753S)
T11 construct: purchased DiscoveRx (KINOMEscan scanMAX panel)

ULK1 = biological target: T12, ULK1 (Homo sapiens, UniProt O75385)
T12 construct: DNA label (for qPCR read-out); purchased DiscoveRx (KINOMEscan scanMAX panel)

MYO3A = biological target: T13, MYO3A (Homo sapiens, UniProt Q8NEV4)
T13 construct: DNA label (for qPCR read-out); purchased KINOMEscan scanMAX panel (DiscoveRx)

[2] = biological target: ABL1(T315I)-nonphosphorylated (Homo sapiens, UniProt P00519, T315I)
SNARK = biological target: T14, SNARK (Homo sapiens, UniProt Q9H093)
T14 construct: purchased KINOMEscan (DiscoveRx)

DDR1 = biological target: T15, DDR1 (Homo sapiens, UniProt Q08345)
T15 construct: DNA label (qPCR read-out); purchased KINOMEscan (DiscoveRx) panel

ROCK1 = biological target: T16, ROCK1 (Homo sapiens, UniProt Q13464)
T16 construct: DNA label (qPCR read-out); purchased DiscoveRx (KINOMEscan ScanMAX panel)

EGFR(L858R,T790M) = biological target: T17, EGFR(L858R,T790M) (Homo sapiens, UniProt P00533, L858R/T790M)
T17 construct: purchased DiscoveRx (KINOMEscan scanMAX panel)

ABL1-nonphosphorylated = ABL1-nonphosphorylated (Homo sapiens, UniProt P00519)
LKB1 = biological target: T18, LKB1 (Homo sapiens, UniProt Q15831)
T18 construct: purchased KINOMEscan (DiscoveRx) panel service

PIK3CA(C420R) = biological target: T19, PIK3CA(C420R) (Homo sapiens, UniProt P42336, C420R)
T19 construct: DNA label; purchased DiscoveRx (KINOMEscan scanMAX panel)

STK33 = biological target: T20, STK33 (Homo sapiens, UniProt Q9BYT3)
T20 construct: DNA label (for qPCR read-out); purchased DiscoveRx (KINOMEscan scanMAX panel, contract assay)

DCAMKL2 = biological target: T21, DCAMKL2 (Homo sapiens, UniProt Q8N568)
T21 construct: DNA label (qPCR read-out); purchased KINOMEscan (DiscoveRx) panel

CAMK2D = biological target: T22, CAMK2D (Homo sapiens, UniProt Q13557)
T22 construct: DNA label (qPCR read-out); purchased KINOMEscan (ScanMAX panel service)
T22 sequence (Q13557 whole entry): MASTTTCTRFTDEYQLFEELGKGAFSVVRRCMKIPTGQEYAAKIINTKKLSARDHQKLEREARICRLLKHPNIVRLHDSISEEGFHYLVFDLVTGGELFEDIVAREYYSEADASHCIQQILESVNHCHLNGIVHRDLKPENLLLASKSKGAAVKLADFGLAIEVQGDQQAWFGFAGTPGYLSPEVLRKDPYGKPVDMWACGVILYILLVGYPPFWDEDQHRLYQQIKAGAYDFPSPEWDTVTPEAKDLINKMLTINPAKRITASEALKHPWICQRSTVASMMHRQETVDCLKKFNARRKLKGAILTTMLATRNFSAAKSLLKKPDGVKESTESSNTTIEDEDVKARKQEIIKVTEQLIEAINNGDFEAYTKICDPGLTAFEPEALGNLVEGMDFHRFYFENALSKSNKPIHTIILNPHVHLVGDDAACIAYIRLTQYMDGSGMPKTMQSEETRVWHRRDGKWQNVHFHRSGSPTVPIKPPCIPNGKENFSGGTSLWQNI

FES = biological target: T23, FES (Homo sapiens, UniProt P07332)
T23 construct: purchased DiscoveRx (KINOMEscan scanMAX panel)
T23 sequence (P07332 whole entry): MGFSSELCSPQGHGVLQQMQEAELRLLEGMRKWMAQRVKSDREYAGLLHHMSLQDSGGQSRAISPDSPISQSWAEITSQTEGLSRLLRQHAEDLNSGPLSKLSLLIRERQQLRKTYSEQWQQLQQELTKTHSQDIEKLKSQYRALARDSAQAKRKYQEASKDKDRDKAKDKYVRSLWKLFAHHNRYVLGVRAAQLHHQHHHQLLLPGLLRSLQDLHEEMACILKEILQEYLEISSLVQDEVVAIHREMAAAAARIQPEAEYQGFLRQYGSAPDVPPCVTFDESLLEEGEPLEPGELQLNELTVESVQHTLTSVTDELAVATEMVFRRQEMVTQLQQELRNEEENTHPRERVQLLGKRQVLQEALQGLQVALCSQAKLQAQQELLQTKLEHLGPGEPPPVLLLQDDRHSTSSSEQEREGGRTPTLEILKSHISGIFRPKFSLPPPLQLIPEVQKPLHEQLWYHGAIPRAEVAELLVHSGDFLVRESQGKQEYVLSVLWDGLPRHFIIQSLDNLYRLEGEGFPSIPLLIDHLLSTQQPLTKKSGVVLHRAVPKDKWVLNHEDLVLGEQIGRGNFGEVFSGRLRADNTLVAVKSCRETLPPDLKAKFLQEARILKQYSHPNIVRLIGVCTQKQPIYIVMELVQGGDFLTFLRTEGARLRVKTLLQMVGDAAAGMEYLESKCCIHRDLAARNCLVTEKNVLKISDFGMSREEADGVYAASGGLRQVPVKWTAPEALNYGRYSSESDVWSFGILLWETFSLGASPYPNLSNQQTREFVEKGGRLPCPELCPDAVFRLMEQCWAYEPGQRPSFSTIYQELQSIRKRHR

CIT = biological target: T24, CIT (Homo sapiens, UniProt O14578)
T24 construct: DNA label (for qPCR read-out); purchased DiscoveRx (KINOMEscan scanMAX service)
T24 sequence (O14578 whole entry): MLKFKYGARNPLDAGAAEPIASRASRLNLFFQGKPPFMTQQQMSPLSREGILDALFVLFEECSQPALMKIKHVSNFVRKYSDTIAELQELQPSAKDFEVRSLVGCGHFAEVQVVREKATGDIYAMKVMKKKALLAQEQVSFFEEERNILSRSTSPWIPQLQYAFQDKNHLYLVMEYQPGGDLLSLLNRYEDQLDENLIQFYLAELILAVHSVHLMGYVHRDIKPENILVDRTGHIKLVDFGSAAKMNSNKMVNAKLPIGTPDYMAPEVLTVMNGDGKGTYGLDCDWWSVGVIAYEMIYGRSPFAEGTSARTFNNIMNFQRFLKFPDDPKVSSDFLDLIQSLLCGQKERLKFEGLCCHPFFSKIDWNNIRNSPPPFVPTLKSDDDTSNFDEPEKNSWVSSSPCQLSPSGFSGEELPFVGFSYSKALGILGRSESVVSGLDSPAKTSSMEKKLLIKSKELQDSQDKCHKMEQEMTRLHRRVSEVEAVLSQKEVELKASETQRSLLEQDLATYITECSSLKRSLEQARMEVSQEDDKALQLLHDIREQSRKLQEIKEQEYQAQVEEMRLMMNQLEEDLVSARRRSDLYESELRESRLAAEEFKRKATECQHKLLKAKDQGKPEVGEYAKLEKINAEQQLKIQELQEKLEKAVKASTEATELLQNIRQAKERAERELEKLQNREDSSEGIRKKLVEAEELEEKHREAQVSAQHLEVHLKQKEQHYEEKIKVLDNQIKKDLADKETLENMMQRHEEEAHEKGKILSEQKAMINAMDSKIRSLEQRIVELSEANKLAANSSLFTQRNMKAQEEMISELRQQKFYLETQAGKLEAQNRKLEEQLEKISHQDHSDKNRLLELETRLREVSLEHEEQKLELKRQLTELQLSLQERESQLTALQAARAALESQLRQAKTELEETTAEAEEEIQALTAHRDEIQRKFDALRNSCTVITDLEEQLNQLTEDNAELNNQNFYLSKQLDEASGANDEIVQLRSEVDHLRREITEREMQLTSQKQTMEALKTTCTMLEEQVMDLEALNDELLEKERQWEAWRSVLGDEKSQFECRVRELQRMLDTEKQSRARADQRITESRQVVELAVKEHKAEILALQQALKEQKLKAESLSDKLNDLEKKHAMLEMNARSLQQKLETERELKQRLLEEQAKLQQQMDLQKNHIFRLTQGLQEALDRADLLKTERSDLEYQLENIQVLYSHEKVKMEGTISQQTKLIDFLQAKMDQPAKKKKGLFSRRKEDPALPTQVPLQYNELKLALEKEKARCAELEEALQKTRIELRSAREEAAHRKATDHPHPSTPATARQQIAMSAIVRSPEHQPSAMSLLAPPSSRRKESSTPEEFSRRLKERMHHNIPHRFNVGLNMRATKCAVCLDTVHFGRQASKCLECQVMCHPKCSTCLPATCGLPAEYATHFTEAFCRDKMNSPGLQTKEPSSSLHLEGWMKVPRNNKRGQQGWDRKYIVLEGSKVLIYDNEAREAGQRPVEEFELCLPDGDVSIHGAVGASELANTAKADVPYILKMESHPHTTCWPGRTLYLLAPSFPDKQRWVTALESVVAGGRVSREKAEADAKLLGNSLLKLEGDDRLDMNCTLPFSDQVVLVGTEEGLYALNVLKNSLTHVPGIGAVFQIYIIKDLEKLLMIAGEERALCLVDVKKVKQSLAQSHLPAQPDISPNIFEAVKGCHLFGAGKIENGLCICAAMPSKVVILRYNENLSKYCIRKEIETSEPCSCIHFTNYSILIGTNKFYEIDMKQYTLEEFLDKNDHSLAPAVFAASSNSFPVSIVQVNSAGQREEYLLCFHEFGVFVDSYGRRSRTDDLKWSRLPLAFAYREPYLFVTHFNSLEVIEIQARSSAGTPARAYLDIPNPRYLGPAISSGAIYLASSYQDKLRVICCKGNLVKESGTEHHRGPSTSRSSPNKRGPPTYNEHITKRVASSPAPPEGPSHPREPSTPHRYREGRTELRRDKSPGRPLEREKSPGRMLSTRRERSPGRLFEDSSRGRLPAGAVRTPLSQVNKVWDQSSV

PIK3CA(E545K) = biological target: T25, PIK3CA(E545K) (Homo sapiens, UniProt P42336, E545K)
T25 construct: DNA label; purchased DiscoveRx (KINOMEscan scanMAX panel)

FYN = biological target: T26, FYN (Homo sapiens, UniProt P06241)
T26 construct: purchased KINOMEscan (DiscoveRx)

PIM1 = biological target: T27, PIM1 (Homo sapiens, UniProt P11309)
T27 construct: DNA label (qPCR read-out); purchased KINOMEscan (DiscoveRx) panel

CAMK1B = biological target: T28, CAMK1B (Homo sapiens, UniProt Q6P2M8)
T28 construct: DNA label (qPCR read-out); purchased KINOMEscan (ScanMAX panel service)
T28 sequence (Q6P2M8 whole entry): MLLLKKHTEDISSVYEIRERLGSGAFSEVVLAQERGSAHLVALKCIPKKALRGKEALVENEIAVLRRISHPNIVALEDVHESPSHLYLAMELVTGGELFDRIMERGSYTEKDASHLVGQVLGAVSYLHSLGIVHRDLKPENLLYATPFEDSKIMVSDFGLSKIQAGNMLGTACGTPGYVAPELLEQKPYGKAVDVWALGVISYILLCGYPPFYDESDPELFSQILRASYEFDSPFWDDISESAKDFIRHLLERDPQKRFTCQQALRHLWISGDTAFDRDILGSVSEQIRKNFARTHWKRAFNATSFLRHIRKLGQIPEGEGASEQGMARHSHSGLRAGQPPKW

KIT(V559D, T670I) = biological target: T29, KIT(V559D, T670I) (Homo sapiens, UniProt P10721, T670I/V559D)
T29 construct: purchased KINOMEscan (DiscoveRx) panel service

SRC = biological target: T30, SRC (Homo sapiens, UniProt P12931)
T30 construct: purchased KINOMEscan (DiscoveRx)

SIK2 = biological target: T31, SIK2 (Homo sapiens, UniProt Q9H0K1)
T31 construct: purchased KINOMEscan (DiscoveRx)
T31 sequence (Q9H0K1 whole entry): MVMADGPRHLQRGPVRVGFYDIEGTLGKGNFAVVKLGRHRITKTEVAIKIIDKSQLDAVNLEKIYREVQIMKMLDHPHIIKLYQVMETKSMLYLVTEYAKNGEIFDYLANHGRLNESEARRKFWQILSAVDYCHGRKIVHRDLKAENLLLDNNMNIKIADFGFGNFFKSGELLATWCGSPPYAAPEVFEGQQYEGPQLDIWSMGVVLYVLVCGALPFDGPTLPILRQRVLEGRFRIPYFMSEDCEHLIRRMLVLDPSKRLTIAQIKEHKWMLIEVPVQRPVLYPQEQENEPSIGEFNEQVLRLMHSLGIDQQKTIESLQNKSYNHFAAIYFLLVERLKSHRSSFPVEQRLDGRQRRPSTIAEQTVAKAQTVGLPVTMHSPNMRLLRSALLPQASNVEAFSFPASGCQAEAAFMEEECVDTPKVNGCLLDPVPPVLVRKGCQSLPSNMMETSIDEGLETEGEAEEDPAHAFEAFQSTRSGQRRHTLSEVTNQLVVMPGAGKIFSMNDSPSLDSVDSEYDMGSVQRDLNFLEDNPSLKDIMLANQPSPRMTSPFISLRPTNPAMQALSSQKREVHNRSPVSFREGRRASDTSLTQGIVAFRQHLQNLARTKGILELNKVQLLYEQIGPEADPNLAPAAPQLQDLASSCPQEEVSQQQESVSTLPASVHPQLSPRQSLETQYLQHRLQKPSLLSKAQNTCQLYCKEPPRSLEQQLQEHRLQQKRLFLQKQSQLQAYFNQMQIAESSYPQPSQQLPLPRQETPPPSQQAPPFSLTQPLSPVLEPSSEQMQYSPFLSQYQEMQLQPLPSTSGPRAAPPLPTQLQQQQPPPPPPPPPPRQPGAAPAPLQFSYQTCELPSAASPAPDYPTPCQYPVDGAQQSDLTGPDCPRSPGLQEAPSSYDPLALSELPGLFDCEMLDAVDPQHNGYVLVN

AMPK-alpha1 = biological target: T32, AMPK-alpha1 (Homo sapiens, UniProt Q13131)
T32 construct: DNA label (qPCR read-out); purchased KINOMEscan scanMAX panel (DiscoveRx)

| SMILES | % Ctrl (WNK3) [% Ctrl] | % Ctrl (ALK(L1196M)) [% Ctrl] | % Ctrl (ACVR1) [% Ctrl] | % Ctrl (CAMK4) [% Ctrl] | % Ctrl (ACVR2A) [% Ctrl] | % Ctrl (NDR2) [% Ctrl] | % Ctrl (LYN) [% Ctrl] | % Ctrl (LATS2) [% Ctrl] | % Ctrl (FLT3(D835V)) [% Ctrl] | % Ctrl (PLK1) [% Ctrl] | % Ctrl (TYRO3) [% Ctrl] | % Ctrl [1] [% Ctrl] | % Ctrl (ULK1) [% Ctrl] | % Ctrl (MYO3A) [% Ctrl] | % Ctrl [2] [% Ctrl] | % Ctrl (SNARK) [% Ctrl] | % Ctrl (DDR1) [% Ctrl] | % Ctrl (ROCK1) [% Ctrl] | % Ctrl (EGFR(L858R,T790M)) [% Ctrl] | % Ctrl (ABL1-nonphosphorylated) [% Ctrl] | also measured |
| --- | --- | --- | --- | --- | --- | --- | --- | --- | --- | --- | --- | --- | --- | --- | --- | --- | --- | --- | --- | --- | --- |
| [2H]C([2H])([2H])N(C(=O)c1ccc(N2CCCN(c3ccnc4sc(C(N)=O)c(N)c34)CC2)cc1)C([2H])([2H])[2H] [15u_D6, 3-amino-4-(4-(4-(bis(methyl-d3)carbamoyl)phenyl)-1,4-diazepan-1-yl)thieno[2,3-b]pyridine-2-carboxamide] | 100 | 92 | 100 | 79 | 92 | 36 | 98 | 31 | 14 | 89 | 100 | 100 | 72 | 100 | 85 | 78 | 90 | 67 | 87 | 78 | % Ctrl (LKB1): 87 % Ctrl; % Ctrl (PIK3CA(C420R)): 86 % Ctrl; % Ctrl (STK33): 100 % Ctrl; % Ctrl (DCAMKL2): 100 % Ctrl; % Ctrl (CAMK2D): 92 % Ctrl; % Ctrl (FES): 100 % Ctrl; % Ctrl (CIT): 65 % Ctrl; % Ctrl (PIK3CA(E545K)): 91 % Ctrl; % Ctrl (FYN): 97 % Ctrl; % Ctrl (PIM1): 100 % Ctrl; % Ctrl (CAMK1B): 70 % Ctrl; % Ctrl (KIT(V559D, T670I)): 96 % Ctrl; % Ctrl (SRC): 96 % Ctrl; % Ctrl (SIK2): 100 % Ctrl; % Ctrl (AMPK-alpha1): 100 % Ctrl |
| CN(C)C(=O)c1ccc(N2CCCN(c3ccnc4sc(C(N)=O)c(N)c34)CC2)cc1 [15u, 3-amino-4-(4-(4-(dimethylcarbamoyl)phenyl)-1,4-diazepan-1-yl)thieno[2,3-b]pyridine-2-carboxamide] | 97 | 96 | 100 | 96 | 95 | 99 | 100 | 94 | 33 | 95 | 100 | 99 | 96 | 100 | 100 | 100 | 82 | 77 | 100 | 95 | % Ctrl (LKB1): 100 % Ctrl; % Ctrl (PIK3CA(C420R)): 100 % Ctrl; % Ctrl (STK33): 100 % Ctrl; % Ctrl (DCAMKL2): 100 % Ctrl; % Ctrl (CAMK2D): 99 % Ctrl; % Ctrl (FES): 100 % Ctrl; % Ctrl (CIT): 51 % Ctrl; % Ctrl (PIK3CA(E545K)): 96 % Ctrl; % Ctrl (FYN): 99 % Ctrl; % Ctrl (PIM1): 88 % Ctrl; % Ctrl (CAMK1B): 100 % Ctrl; % Ctrl (KIT(V559D, T670I)): 100 % Ctrl; % Ctrl (SRC): 100 % Ctrl; % Ctrl (SIK2): 96 % Ctrl; % Ctrl (AMPK-alpha1): 100 % Ctrl |
